Drawing on patent publication US20250340557A1, “PYRIMIDINE DERIVATIVE” (ASKA PHARMACEUTICAL CO., LTD., priority 2022, published 2025), this text covers IC50 for 19 molecules.

As a reminder, the IC50 is the concentration that inhibits the measured activity by half.

For the assay, the target named is T1, human mPGES-1 (Homo sapiens, UniProt O14684).
T1 construct: made in house; host or cells: COS-1 cells (transient transfection; microsomal fraction used as enzyme)
T1 sequence (O14684 1-152): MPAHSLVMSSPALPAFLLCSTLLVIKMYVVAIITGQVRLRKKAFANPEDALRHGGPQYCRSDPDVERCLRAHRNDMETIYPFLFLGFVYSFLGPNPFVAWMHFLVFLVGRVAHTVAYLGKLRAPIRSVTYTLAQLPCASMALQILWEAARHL
Nature of the assay: Test for mPGES-1 inhibitory activity (microsomal enzyme, PGE2 EIA). Type of assay: biochemical. As to conditions: microsomes from COS-1 cells transfected with human mPGES-1 cDNA; substrate PGH2 1 μM; 4° C., 4 minutes; PGE2 measured by EIA; read-out: h mPGES1 IC50. Put shortly: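 IC50 values were derived from EIA-quantified PGE2 after a 4 min, 4 °C reaction with PGH2 at 1 μM final, stopped with ferric chloride/citric acid. Beforehand, compound (2% DMSO final) sat 15 min at 4 °C with human mPGES-1 microsomes from transiently transfected COS-1 cells. Buffer was sodium phosphate pH 7.2 containing 2.5 mM reduced glutathione and 1 mM EDTA.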
Take `O=C(NCc1ccc(C(F)(F)F)c(-c2nc(C(F)(F)F)cc(=O)[nH]2)c1F)C1CCN(c2cccc(OC(F)(F)F)c2)CC1` [Example 74, N-{2-fluoro-3-[6-oxo-4-(trifluoromethyl)-1,6-dihydropyrimidin-2-yl]-4-(trifluoromethyl)benzyl}-1-[3-(trifluoromethoxy)phenyl]piperidine-4-carboxamide]: the IC50 is below 1 nM. On to `N#Cc1ccc(N2CCC(C(=O)NCc3ccc(C(F)(F)F)c(-c4nc(C(F)(F)F)cc(=O)[nH]4)c3F)CC2)c(Cl)c1` [Example 75, 1-(2-chloro-4-cyanophenyl)-N-{2-fluoro-3-[6-oxo-4-(trifluoromethyl)-1,6-dihydropyrimidin-2-yl]-4-(trifluoromethyl)benzyl}piperidine-4-carboxamide], for which the IC50 was below 1 nM. For the molecule `Cc1cc(=O)[nH]c(-c2c(C(F)(F)F)ccc(CNC(=O)C3CCN(c4ccc(Cl)cc4)CC3)c2F)n1` [Example 76, 1-(4-chlorophenyl)-N-[2-fluoro-3-(4-methyl-6-oxo-1,6-dihydropyrimidin-2-yl)-4-(trifluoromethyl)benzyl]piperidine-4-carboxamide], the IC50 is 31 nM.

Regarding `Cc1nc(-c2c(C(F)(F)F)ccc(CNC(=O)C3CCN(c4ccc(Cl)cc4)CC3)c2F)[nH]c(=O)c1F` [Example 77, 1-(4-chlorophenyl)-N-[2-fluoro-3-(5-fluoro-4-methyl-6-oxo-1,6-dihydropyrimidin-2-yl)-4-(trifluoromethyl)benzyl]piperidine-4-carboxamide], the IC50 worked out at 16 nM. Next, `CCc1nc(-c2c(C(F)(F)F)ccc(CNC(=O)C3CCN(c4ccc(Cl)cc4)CC3)c2F)[nH]c(=O)c1F` [Example 79, 1-(4-chlorophenyl)-N-[3-(4-ethyl-5-fluoro-6-oxo-1,6-dihydropyrimidin-2-yl)-2-fluoro-4-(trifluoromethyl)benzyl]piperidine-4-carboxamide]: 56 nM; `CCc1nc(-c2c(C(F)(F)F)ccc(CNC(=O)C3CCN(c4ccc(OC(F)(F)F)cc4)CC3)c2F)[nH]c(=O)c1F` [Example 80, N-[3-(4-ethyl-5-fluoro-6-oxo-1,6-dihydropyrimidin-2-yl)-2-fluoro-4-(trifluoromethyl)benzyl]-1-[4-(trifluoromethoxy)phenyl]piperidine-4-carboxamide]: 22 nM; `O=C(NCc1ccc(C(F)(F)F)c(-c2nc(C(F)(F)F)cc(=O)[nH]2)c1F)C1CCN(c2ccc(Cl)c(F)c2)CC1` [Example 81, 1-(4-chloro-3-fluorophenyl)-N-{2-fluoro-3-[6-oxo-4-(trifluoromethyl)-1,6-dihydropyrimidin-2-yl]-4-(trifluoromethyl)benzyl}piperidine-4-carboxamide]: 5 nM.

For `O=C(NCc1ccc(C(F)(F)F)c(-c2nc(C(F)(F)F)cc(=O)[nH]2)c1F)C1CCN(c2cc(Cl)cc(Cl)c2)CC1` [Example 82, 1-(3,5-dichlorophenyl)-N-{2-fluoro-3-[6-oxo-4-(trifluoromethyl)-1,6-dihydropyrimidin-2-yl]-4-(trifluoromethyl)benzyl}piperidine-4-carboxamide], the IC50 stood at 8.1 nM. On to `COc1cc(N2CCC(C(=O)NCc3ccc(C(F)(F)F)c(-c4nc(C(F)(F)F)cc(=O)[nH]4)c3F)CC2)ccc1Cl` [Example 83, 1-(4-chloro-3-methoxyphenyl)-N-{2-fluoro-3-[6-oxo-4-(trifluoromethyl)-1,6-dihydropyrimidin-2-yl]-4-(trifluoromethyl)benzyl}piperidine-4-carboxamide], for which the half-inhibitory concentration (IC50) stood at 7.1 nM.

Turning to `O=C(NCc1ccc(C(F)(F)F)c(-c2nc(C(F)F)cc(=O)[nH]2)c1F)C1CCN(c2ccc(Cl)c(Cl)c2)CC1` [Example 84, 1-(3,4-dichlorophenyl)-N-{3-[4-(difluoromethyl)-6-oxo-1,6-dihydropyrimidin-2-yl]-2-fluoro-4-(trifluoromethyl)benzyl}piperidine-4-carboxamide], the IC50 was 5.2 nM. `O=C(NCc1ccc(C(F)(F)F)c(-c2nc(C(F)F)cc(=O)[nH]2)c1F)C1CCN(c2ccc(OC(F)(F)F)cc2)CC1` [Example 85, N-{3-[4-(difluoromethyl)-6-oxo-1,6-dihydropyrimidin-2-yl]-2-fluoro-4-(trifluoromethyl)benzyl}-1-[4-(trifluoromethoxy)phenyl]piperidine-4-carboxamide]: the IC50 worked out at 0.61 nM. For `Cc1cc(=O)[nH]c(-c2c(C(F)(F)F)ccc(CNC(=O)C3CCN(c4ccc(Cl)c(Cl)c4)CC3)c2F)n1` [Example 86, 1-(3,4-dichlorophenyl)-N-[2-fluoro-3-(4-methyl-6-oxo-1,6-dihydropyrimidin-2-yl)-4-(trifluoromethyl)benzyl]piperidine-4-carboxamide], the half-maximal inhibitory concentration (IC50) is below 1 nM. Consider `Cc1cc(=O)[nH]c(-c2c(C(F)(F)F)ccc(CNC(=O)C3CCN(c4ccc(OC(F)(F)F)cc4)CC3)c2F)n1` [Example 87, N-[2-fluoro-3-(4-methyl-6-oxo-1,6-dihydropyrimidin-2-yl)-4-(trifluoromethyl)benzyl]-1-[4-(trifluoromethoxy)phenyl]piperidine-4-carboxamide], for which the IC50 came out at 39 nM.

On to `O=C(NCc1ccc(C(F)(F)F)c(-c2nc(C(F)(F)F)cc(=O)[nH]2)c1F)C1CCN(c2ccc(F)c(Cl)c2)CC1` [Example 88, 1-(3-chloro-4-fluorophenyl)-N-{2-fluoro-3-[6-oxo-4-(trifluoromethyl)-1,6-dihydropyrimidin-2-yl]-4-(trifluoromethyl)benzyl}piperidine-4-carboxamide], for which the 50% inhibitory concentration (IC50) was below 1 nM. Next, `O=C(NCc1ccc(C(F)(F)F)c(-c2nc3c(c(=O)[nH]2)CCC3)c1F)C1CCN(c2ccc(Cl)cc2)CC1` [Example 89, 1-(4-chlorophenyl)-N-[2-fluoro-3-(4-oxo-4,5,6,7-tetrahydro-3H-cyclopenta[d]pyrimidin-2-yl)-4-(trifluoromethyl)benzyl]piperidine-4-carboxamide]: below 1 nM; `CCc1nc(-c2c(C(F)(F)F)ccc(CNC(=O)C3CCN(c4ccc(C#N)cc4Cl)CC3)c2F)[nH]c(=O)c1F` [Example 90, 1-(2-chloro-4-cyanophenyl)-N-[3-(4-ethyl-5-fluoro-6-oxo-1,6-dihydropyrimidin-2-yl)-2-fluoro-4-(trifluoromethyl)benzyl]piperidine-4-carboxamide]: 1.6 nM; `COc1cc(N2CCC(C(=O)NCc3ccc(C(F)(F)F)c(-c4nc(C)cc(=O)[nH]4)c3F)CC2)ccc1Cl` [Example 93, 1-(4-chloro-3-methoxyphenyl)-N-[2-fluoro-3-(4-methyl-6-oxo-1,6-dihydropyrimidin-2-yl)-4-(trifluoromethyl)benzyl]piperidine-4-carboxamide]: 1.4 nM. Consider `Cc1cc(=O)[nH]c(-c2c(C(F)(F)F)ccc(CNC(=O)C3CCN(c4cccc(C(F)(F)F)c4)CC3)c2F)n1` [Example 94, N-[2-fluoro-3-(4-methyl-6-oxo-1,6-dihydropyrimidin-2-yl)-4-(trifluoromethyl)benzyl]-1-[3-(trifluoromethyl)phenyl]piperidine-4-carboxamide], for which the concentration for half-maximal inhibition (IC50) was determined as 13 nM.

`Cc1cc(=O)[nH]c(-c2c(C(F)(F)F)ccc(CNC(=O)C3CCN(c4ccc(Cl)c(F)c4)CC3)c2F)n1` [Example 95, 1-(4-chloro-3-fluorophenyl)-N-[2-fluoro-3-(4-methyl-6-oxo-1,6-dihydropyrimidin-2-yl)-4-(trifluoromethyl)benzyl]piperidine-4-carboxamide]: the IC50 was below 1 nM.
